Test results published in paper PMC12518693, “Potent Fluorescent Probe for Target‐Engagement Studies of Allosteric Pyruvate Kinase Modulators” (Angewandte Chemie (International Ed. in English), 2025).

Assays:
PKL = PKL (Homo sapiens, UniProt P30613); test: Fluorescence indication titration of tracer IV; format: binding; set-up: co-crystallisation of full-length PKL (including the B-domain); 8xHis (TEV-cleavable) (N, cleaved yes); made in house; host or cells: E. coli T7 Express (NEB), pExp-NHis plasmid
Chain of PKL (P30613 1-543 isoform P30613-2): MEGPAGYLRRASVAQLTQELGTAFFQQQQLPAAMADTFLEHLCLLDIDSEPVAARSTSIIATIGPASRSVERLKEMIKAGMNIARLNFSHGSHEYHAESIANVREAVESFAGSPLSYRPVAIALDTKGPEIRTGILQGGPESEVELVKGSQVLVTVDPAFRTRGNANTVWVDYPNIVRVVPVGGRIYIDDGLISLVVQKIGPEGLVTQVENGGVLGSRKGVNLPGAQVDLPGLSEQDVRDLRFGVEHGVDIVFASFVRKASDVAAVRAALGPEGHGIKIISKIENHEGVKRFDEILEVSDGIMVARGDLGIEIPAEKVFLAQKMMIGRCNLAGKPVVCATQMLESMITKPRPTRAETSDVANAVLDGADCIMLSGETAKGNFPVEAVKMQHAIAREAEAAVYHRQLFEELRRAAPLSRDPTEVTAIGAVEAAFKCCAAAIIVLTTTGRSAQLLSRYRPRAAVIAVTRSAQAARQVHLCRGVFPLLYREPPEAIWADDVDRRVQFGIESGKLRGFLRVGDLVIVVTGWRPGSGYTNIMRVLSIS
Description: The binding kinetics of IV were further validated with fluorescence titration experiments conducted with recombinant PKL. As previously reported, SBD‐tagged PKL ligands fluorescence upon binding to the allosteric pocket,^[ [43] ^] enabling K D determination by saturation binding. […] Association kinetics were then measured by adding tracer IV to PKL and monitoring fluorescence over time. Data were fit using an exponential association model (Equation S2),^[ [49] ^] and k on was derived from the reciprocal analysis of recorded k obs values. The k off was subsequently calculated (Equation S3).^[ [49] ^] The fluorescent binding experiments were consistent with SPR results, confirming a mid‐nanomolar K D of IV.
Titrations of tracer IV were performed in the presence and absence of 10 µM FBP. […] PKL was prepared as a 2x working solution at a constant concentration used throughout the titration. Equal volumes (10 µL) of 2x tracer and 2x PKL solutions were mixed (1:1) in 384-well microplates (Corning Black PS, 3820). For each experiment, three 12-point triplicate series were prepared containing either: (1) tracer IV and buffer (no PKL), (2) tracer IV and PKL (0.1 µM), (3) tracer IV and PKL (0.1 µM) and mitapivat (10 µM, competitor control). […] Titration data were analyzed in Origin(Pro) 2023^[8] and fitted to the Hill equation to determine EC₅₀ values.

HEK293 cells = test: HEK293 cell viability assay (CellTiter-Glo 2.0); format: cell-based; details: 2 h
Description: Finally, the effects of tracer IV on cell viability were assessed. HEK293 cells were treated with IV at concentrations of 0, 0.01, 0.1, 1, and 10 µM for 2 h, after which cells were lysed, and intracellular ATP levels were quantified using the CellTiter‐Glo 2.0 assay (Figure S8a).
Figure S8. Cell viability assay (CellTiter-Glo 2.0) of HEK293 cells treated with different concentrations of tracer IV. (A) Cell viability assay performed on HEK293 cells incubated for 2 h with different concentrations of tracer IV or DMSO (0 nM IV) in FluoroBrite™ DMEM complete medium. Results are reported as relative luminescence values (mean ± SE, n=4, One Way ANOVA followed by Dunnett´s multiple comparison test). […] Results are reported as relative luminescence values (mean ± SE, n=4, One Way ANOVA followed by Dunnett´s multiple comparison test). […] Results are reported as relative luminescence values (mean ± SE, n=4, One Way ANOVA followed by Dunnett´s multiple comparison test).
The effect of tracer IV on cell viability was assessed using CellTiter-Glo 2.0 assay (Promega). This is a method that determines the number of viable cells by quantifying the amount of ATP in the metabolically active cells. […] Mono-oxygenation of luciferin catalyzed by luciferase in the presence of ATP will generate light which could be measured by luminometer. […]

koff (PKL; calculated from K D and k on (Equation S3), read-out: k off fluorescence titration (PKL) (converted)): 0.00865 s⁻¹
kon (PKL; from k obs values): 206000 M⁻¹ s⁻¹
Kd (PKL; recombinant PKL, Hill fit, read-out: K D fluorescence titration (PKL)): 42 ± 7 nM
Structure (SMILES): CN(C)c1ccc(S(=O)(=O)c2ccc3c(=O)n(Cc4cc[nH]n4)ncc3c2)c2nonc12 [Compound IV, 2-((1H-Pyrazol-3-yl)methyl)-6-((7-(dimethylamino)benzo[c][1,2,5]oxadiazol-4-yl)sulfonyl)phthalazin-1(2H)-one]
effect of FBP on binding affinity (PKL; PKLwt, with and without 10 µM FBP): no significant change in binding affinity
effect on cell viability (intracellular ATP) (HEK293 cells; HEK293, 0.01-10 µM): does not affect cell viability
effect on viability of transfected cells (HEK293 cells; HEK293 transfected with PKLNluc or Nluc plasmids, up to highest tested concentration): did not affect the viability
